Patent publication US5081261A, “4-(1-hydroxy-2-N-substituted sulfonamido) ethyl-5-hydroxy-2(5H)-furanones and 4-(N-substituted sulfonamido)-2-ethenyl-5-hydroxy-2(5H)-furanones as anti-inflammatory agents” (Allergan, Inc., priority 1990, dated 1992)

Columns and labels:
[1] = target: bee venom phospholipase A2 (Apis mellifera, UniProt P00630); test: biochemical
[2] = prior art; cited from earlier work
[3] = test system: phosphoinositide-specific phospholipase C; settings: reported for manoalide, Bennett et al; cited from earlier work

Chain of bee venom phospholipase A2 (P00630 34-167 limits assumed): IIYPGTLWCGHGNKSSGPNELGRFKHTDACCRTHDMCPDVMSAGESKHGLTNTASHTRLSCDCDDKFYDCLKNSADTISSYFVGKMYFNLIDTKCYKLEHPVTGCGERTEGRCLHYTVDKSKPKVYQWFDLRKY

SMILES	IC50 [1] [µM]	biological properties [2]	inhibition of phosphoinositide-specific phospholipase C [3]
CC1=C(CC/C(C)=C/CCC2=CCC(C3=CC(=O)OC3O)OC2O)C(C)(C)CCC1 (stereo not drawn) [Compound 1]	0.03	anti-inflammatory,immunosuppressive and analgesic properties	inhibition
CC1=C(CC/C(C)=C/CCC(C=O)=CCC(O)C2=CC(=O)OC2O)C(C)(C)CCC1 (stereo not drawn) [Compound 2]	–	anti-inflammatory activity	–
CC1=C(CC/C(C)=C/CCC(C=O)=CC=CC2=CC(=O)OC2O)C(C)(C)CCC1 (stereo not drawn) [Compound 3]	–	anti-inflammatory activity	–
CCCCCCCCCCCCNS(=O)(=O)/C=C/C1=CC(=O)OC1O (stereo not drawn) [Compound 4, 4-[2-(N-Dodecylsulfonamido)ethenyl]-5-hydroxy-2(5H)-furanone]	0.04	–	–
CCCCCCCCCCCCNS(=O)(=O)CC(O)C1=CC(=O)OC1O (stereo not drawn) [Compound 5, 4-[1-Hydroxy-2-(N-dodecylsulfonamido)]ethyl-5-hydroxy-2(5H)-furanone]	0.1	–	–
CCCCCCCCCCCCNS(=O)(=O)CC(OC(C)=O)C1=CC(=O)OC1O (stereo not drawn) [Compound 6, 4-[1-Acetoxy-2-(N-dodecylsulfonamido)]ethyl-5-hydroxy-2(5H)-furanone]	0.05	–	–
CCCCCCCCCCCCNS(=O)(=O)CC(OC(=O)CCCC(=O)O)C1=CC(=O)OC1O (stereo not drawn) [Compound 7, 4-[1-Gluraroyloxy-2-(N-dodecylsulfonamido)]ethyl-5-hydroxy-2(5H)-furanone]	0.05	–	–
